This data set in a line: gradient 5% acetonitrile 3 min, to 50% in 2 min, to 85% in 15 min, held 3 min, 100 µL/min. The following applies: column: Zorbax Extend-C18 2.1 x 50 mm; eluents: water / acetonitrile, 0.1% formic acid. Summed up:
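Pure standards were run in mixtures of ~100 molecules by HPLC coupled to a quadrupole time-of-flight mass spectrometer. The column was a Zorbax Extend-C18 (2.1 × 50 mm, 1.8 μm) at 100 μL/min, with water and acetonitrile each containing 0.1% formic acid, in positive and negative ionization mode. Dead and dwell volumes were 40 μL and 900 μL. Retention time was taken from computationally picked adduct peaks, each manually inspected, with data collected over 3 months.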
Turning to `CCN1c2ccccc2C(=O)NC12CCN(C(=O)Nc1ccc(C)c(C)c1)CC2`, the RP-LC retention time was found to be 860 s.
For `COc1ccc(CCN2C(=O)CC(Nc3ccc(N4CCOCC4)cc3)C2=O)cc1OC` (centres undefined), the RP-LC retention time came out at 583 s.
`CCCNC(=O)c1nc(-c2ccc3c(c2)OCC(=O)N3CC)no1`: the RP-LC retention time came out at 821 s.
The value for `CC1CN(C(=O)CSc2cn(CC(=O)N3CCCCC3)c3ccccc23)CC(C)O1` (centres undefined) was 812 s; that for `Cc1ccc(-c2nc(CN3CCSCC3)c(C)o2)cc1` was 680 s.
Consider `O=C(NCc1ccccn1)C1c2ccccc2C(=O)N(Cc2ccccc2)C12CCCC2` (centres undefined), for which the RP-LC retention time came to 704 s.
Compound `CC1CCN(S(=O)(=O)c2nn(Cc3ccccn3)cc2C(=O)O)CC1` returned an RP-LC retention time of 721 s.
The value for `CC1=NS(=O)(=O)N(C)C=C1C(=O)OCc1noc(-c2ccccc2F)n1` was 914 s; that for `O=C(Nc1cccc(F)c1)C1CCN(S(=O)(=O)c2cc(C(=O)N3CCCC3)cs2)CC1` was 829 s.
`Cc1cc(C)n2c(Nc3ccccc3)c(-c3cccc(Cl)c3)nc2n1` registered an RP-LC retention time of 1130 s.
Then `CCN(C(=O)CN1C(=O)CCCc2cc(S(=O)(=O)N3CCCCC3)ccc21)c1ccc(OC)cc1`, with 961 s.
The value for `COc1cc(S(=O)(=O)NCc2ccccc2)c(OC)cc1Br` was 867 s; that for `Cc1ccc(S(=O)(=O)Cc2ccc(C(=O)N3CCN(c4ccccn4)CC3)o2)cc1` was 606 s.
Regarding `COc1ccccc1NC(=O)C1CCN(S(=O)(=O)c2cc(C(=O)N3CCCC3)n(C)c2)CC1`, the RP-LC retention time came to 758 s.
Then `COC(=O)CNC(=O)N1CCC(N2CCN(Cc3ccc(C)cc3)C(=O)C2=O)CC1`, with 644 s.
The value for `CCCc1noc(-c2ccnc(-n3ncc(C(=O)NC4CC4)c3C)c2)n1` was 839 s; that for `CCn1ccc2c(cc(C(=O)Nc3cc(C)ccc3C)n2C)c1=O` was 721 s.
Then `CCn1ccc2c(cc(C(=O)NCc3ccc4c(c3)OCO4)n2C)c1=O`, with 676 s; and `NC(=O)C1CCN(C(c2ccccc2F)c2sc3nc(-c4ccco4)nn3c2O)CC1` (centres undefined), with 677 s; and `CC1(c2nc(-c3ccccc3)no2)CCCN(Cc2ncon2)C1` (centres undefined), with 754 s.
Take `O=S(=O)(Cc1ccccc1Cl)N(CCc1cccs1)Cc1ccco1`: the RP-LC retention time worked out at 1080 s.
Consider `CCC(C)NC(=O)c1cc(NC(C)=O)cc2nc(C)ccc12` (centres undefined), for which the RP-LC retention time was determined as 575 s.
The value for `O=S(=O)(NC1CCCCCCC1)c1ccc2c(c1)-c1oncc1CO2` was 1030 s; that for `CCC(C)NC(=O)c1cccc(C)c1` (centres undefined) was 847 s.
As for `O=C(C1CC(=O)N(c2ccc3c(c2)CCN3C(=O)C2CC2)C1)N1CCCC1` (centres undefined), the RP-LC retention time was 647 s.
`Fc1ccccc1-c1nc2ccccc2[nH]1` showed an RP-LC retention time of 592 s.
`C=CCc1c(C)nc2c(-c3ccccc3)cnn2c1NCCN(C)C` yielded an RP-LC retention time of 660 s.
`CCOCCCNC(=O)C1CCCN(c2nnc(C)c3c(C)n(-c4ccc(C)cc4)nc23)C1` (centres undefined) showed an RP-LC retention time of 687 s.
Regarding `Cc1ccc(-c2nc(Nc3ccccc3F)sc2CC(=O)O)cc1`, the RP-LC retention time came to 960 s.
Then `Cc1cc(-c2nnc(-c3ccc(F)cc3)o2)c(C)n1CC(=O)NC(C)c1ccccc1` (centres undefined), with 946 s; and `Cc1ccc2nc(C(=O)N3CCC(C)CC3)cc(Nc3ccc(N(C)C)cc3)c2c1`, with 745 s; and `Nc1ccc(C(=O)Oc2ccc([N+](=O)[O-])cc2)cc1`, with 926 s.
Compound `CC(C)c1nc(N2CCCC2=O)sc1C(=O)NCc1ccc(N(C)C)cc1` showed an RP-LC retention time of 675 s.
The value for `CN1C(=O)C(C)(C)COc2cc(NS(=O)(=O)Cc3cccc(Cl)c3)ccc21` was 880 s; that for `CCc1ccccc1NS(=O)(=O)c1cc2n(c1)CCN(CC)C2=O` was 771 s.
Then `Cc1cccn2c(=O)cc(CN(C)Cc3ccccc3)nc12`, with 603 s.
Then `CCn1cc2c(n1)c(=O)n(Cc1ccccc1)c(=O)n2CC(=O)NCc1ccccc1Br`, with 890 s; and `Cn1nc(-c2nc(Cc3ccccc3)no2)c2c1CCN(C(=O)NC1CCCC1)C2`, with 867 s.
`COc1cccc(C(=O)NCCCc2ccc(N(C)C)cc2)c1OC` returned an RP-LC retention time of 574 s.
The compound `CC(C)=CCOc1cc(O)c2c(=O)cc(-c3ccccc3)oc2c1` registered an RP-LC retention time of 666 s.
As to `COc1ccc(CNCCc2c(C)[nH]c3ccc(F)cc23)cc1OC`, the RP-LC retention time worked out at 571 s.
The value for `CC(C)c1ccc(NC(=O)c2cc3sc(Cl)cc3n2C)cc1` was 1300 s.
Compound `CCn1nc(C)c(CCNC(=O)CCCn2c(=O)c3cccn3c3ccc(Br)cc32)c1C` displayed an RP-LC retention time of 730 s.
Turning to `COc1ccccc1-c1nnc(Nc2nc3ccc(SC)cc3s2)o1`, the RP-LC retention time was found to be 830 s.
The compound `O=C(NCCN1CCCCCC1)C1CCCN(c2nn3c(=O)c4c(nc3s2)CCCC4)C1` (centres undefined) showed an RP-LC retention time of 608 s.
Then `COc1ccc(C2CC(=O)N(c3ccc(C)cc3C)C(=O)C2)cc1OC`, with 889 s; and `CCN1C(=O)c2cc(S(=O)(=O)Nc3cc(C)ccc3C)ccc2Oc2cccnc21`, with 1100 s; and `Fc1cccc(-c2nc(-c3cn(Cc4ccccc4)nn3)no2)c1`, with 1020 s.
Then `COc1ccc(OC)c(NC2=NS(=O)(=O)C(c3ccc(F)cc3)=C2C)c1`, with 880 s; and `O=C1C(N2CCCN(S(=O)(=O)c3cccnc3)CC2)CCN1CC1CC1` (centres undefined), with 593 s.
Consider `CCOc1ccc2cccc(NC(=O)c3cnccn3)c2n1`, for which the RP-LC retention time was 1080 s.
Regarding `O=C(c1cccs1)N1CCCc2cc(NS(=O)(=O)c3cc(F)ccc3F)ccc21`, the RP-LC retention time came to 832 s.
`COCc1cn(C2CN(C(=O)Cc3c[nH]c4ccccc34)C2)nn1` yielded an RP-LC retention time of 634 s.
`COC1C(=O)N(c2cccc(F)c2)C12CCN(S(=O)(=O)Cc1ccccc1)CC2` (centres undefined) returned an RP-LC retention time of 1020 s.
The value for `CN(c1ccccc1)S(=O)(=O)c1ccc(C(=O)Nc2nccs2)cc1` was 807 s.
Then `COc1ccc(NC(=O)N2CCC(c3nc(C(=O)N(C)C)c(C)o3)CC2)c(OC)c1`, with 635 s; and `Cc1noc(C)c1Cc1ccc(C(=O)N2CCC(N3C[C@H](O)C[C@H]3C(=O)NC3CCCCC3)CC2)o1`, with 656 s.
The value for `COCc1nncn1C1CCN(S(=O)(=O)c2ccccc2C(F)(F)F)CC1` was 725 s.
With `CCC(=O)N1CCc2ccccc2C1C(=O)NCCCN1CCCC1=O` (centres undefined), the RP-LC retention time turned out to be 646 s.
`COc1ccc(NC(=O)N2C[C@H]3C[C@H](C2)[C@H]2CCCC(=O)N2C3)cc1` registered an RP-LC retention time of 620 s.
The compound `CCN1c2ccc(F)cc2C(=O)NC12CCN(C(=O)c1ccccc1C)CC2` returned an RP-LC retention time of 835 s.
On to `O=C(Nc1ccccc1)c1cccn1Cc1noc(C2CC2)n1`, for which the RP-LC retention time came out at 885 s.
The value for `COCCN(Cc1ccc(F)cc1)Cc1cc(=O)c2cc(F)ccc2[nH]1` was 815 s; that for `CCc1cccc(NC(=O)C2CCCN(S(=O)(=O)c3c[nH]c(C(=O)N4CCCC4)c3)C2)c1` (centres undefined) was 877 s.
Turning to `O=C(c1nnn2c1COC(c1ccccc1)C2)N1CCN(C(=O)c2cccc3[nH]ccc23)CC1` (centres undefined), the RP-LC retention time was determined as 792 s.
`CCN1CCC(N(Cc2ccc3c(c2)OCO3)C(=O)Nc2ccc(OC)cc2)CC1` returned an RP-LC retention time of 641 s.
Then `CCc1nc2ccccc2c(=O)n1Cc1noc(-c2ccc(OC)cc2OC)n1`, with 918 s; and `CCOC(=O)c1c(C)oc2nc(C)nc(N3CCN(c4ccccn4)CC3)c12`, with 654 s.
The value for `Cn1nc(C(=O)N2CCCC(C(=O)Nc3ccccc3)C2)c2c1CCN(C(=O)CCc1ccccc1)C2` (centres undefined) was 800 s; that for `Clc1cc(-c2nc(-c3cccc(-c4ccn[nH]4)c3)no2)ccn1` was 949 s; that for `COC(=O)c1ncn2c1C(=O)N(c1cccc(C)c1)C(C)(C(=O)NCc1ccc(C)cc1)C2` (centres undefined) was 734 s.
Then `COc1ccccc1CCC(=O)Nc1ccc2c(c1)Sc1ncccc1C(=O)N2C`, with 822 s; and `CCOC(=O)CCNC(=O)C1CCCN(c2nccnc2Oc2ccc(C)cc2)C1` (centres undefined), with 884 s.
Compound `O=C(Nc1nnc(C2CC(=O)N(c3ccc(Cl)cc3)C2)o1)c1ccccc1F` (centres undefined) showed an RP-LC retention time of 748 s.
In turn, `CC(C)C(NC(=O)c1ccco1)C(=O)N1CCC(c2noc(-c3ccccc3)n2)CC1` (centres undefined) gave an RP-LC retention time of 920 s.
Then `CC(=O)c1cccc(NC(=O)CN2C(=O)CC(c3ccccc3)=Nc3cccnc32)c1`, with 854 s.
As to `CCC(=O)N1CCCCCCN(C)C(=O)[C@@H]2CCC[C@@H]21`, the RP-LC retention time turned out to be 726 s.
Then `Cc1ccc(S(=O)(=O)N2CCc3c(c(-c4nnc(-c5ccc(F)cc5)o4)nn3C)C2)c(C)c1`, with 1060 s; and `CCOC(=O)c1cc(C)nc2c1c(=O)n(Cc1ccc(F)cc1)c(=O)n2C`, with 1070 s.

Values taken from the METLIN SMRT retention time set (Domingo-Almenara et al. 2019).
